Laboratory results from patent US20130029962A1, “Substituted Heteroaromatic Pyrazole-Containing Carboxamide and Urea Compounds as Vanilloid Receptor Ligands” (Gruenenthal GmbH, priority 2011, published 2013).

Target: T1, vanilloid receptor 1 (VR1/TRPV1 receptor) (Homo sapiens, UniProt Q8NER1)
T1 construct: expressed in transfected cells; host or cells: CHO K1
Experiment: Functional testing on the vanilloid receptor 1 (VR1/TRPV1): FLIPR Ca2+ influx assay, displacement of capsaicin
Assay type: cell-based, human being
Parameters: key to mode of action at VR1/TRPV1 (AG, pAG, NE), Cap: AG=agonist; NE=no effect; pAG=partial agonist
Settings: 1 μM compound; capsaicin (Cap); human being; read-out: inhibition (as a percentage) at the concentration after @, Cap
Procedure: Furthermore, preference may be given to compounds according to the invention that cause a 50 percent displacement of capsaicin, which is present at a concentration of 100 nM, in a FLIPR assay with CHO K1 cells which were transfected with the human VR1 gene at a concentration of less than 2,000 nM, preferably less than 1,000 nM, particularly preferably less than 300 nM, most particularly preferably less than 100 nM, even more preferably less than 75 nM, additionally preferably less than 50 nM, most preferably less than 10 nM.
In the process, the Ca^2+ influx is quantified in the FLIPR assay with the aid of a Ca^2+-sensitive dye (type Fluo-4, Molecular Probes Europe BV, Leiden, the Netherlands) in a fluorescent imaging plate reader (FLIPR, Molecular Devices, Sunnyvale, USA), as described hereinafter. […]
The number of cells in the suspension is set to 3×10^5 per mL and 150 μL of this suspension are in each case introduced into a recess in the cell culture plates coated as described hereinbefore. In the incubator the plates are left for two to three days at 37° C., 5% by volume of CO2 and 95% relative humidity. Subsequently, the cells are loaded with 2 μM of Fluo-4 and 0.01% by volume of Pluronic F127 (Molecular Probes Europe BV, Leiden, the Netherlands) in HBSS buffer (Hank's buffered saline solution, Gibco Invitrogen GmbH, Karlsruhe, Germany) for 30 min at 37° C., washed 3 times with HBSS buffer and after further incubation for 15 minutes at room temperature used for Ca^2+ measurement in a FLIPR assay. The Ca^2+-dependent fluorescence is in this case measured before and after the addition of substances (λex=488 nm, λem=540 nm). Quantification is carried out by measuring the highest fluorescence intensity (FC, fluorescence counts) over time.
The FLIPR protocol consists of 2 substance additions. First the compounds to be tested (10 μM) are pipetted onto the cells and the Ca^2+ influx is compared with the control (capsaicin 10 μM). This provides the result in % activation based on the Ca^2+ signal after the addition of 10 μM of capsaicin (CP). After 5 minutes' incubation, 100 nM of capsaicin are applied and the Ca^2+ influx is also determined. Desensitising agonists and antagonists lead to suppression of the Ca^2+ influx. The % inhibition is calculated compared to the maximum achievable inhibition with 10 μM of capsazepine. Triple analyses (n=3) are carried out and repeated in at least 3 independent experiments (N=4).
Starting from the percentage displacement caused by different concentrations of the compounds to be tested of general formula I, IC50 inhibitory concentrations which cause a 50-percent displacement of capsaicin were calculated. Ki values for the test substances were obtained by conversion by means of the Cheng-Prusoff equation (Cheng, Prusoff; Biochem. Pharmacol. 22, 3099-3108, 1973).
The affinity of the compounds according to the invention for the vanilloid receptor 1 (VR1/TRPV1 receptor) was determined as described above (pharmacological method I).

T1 sequence (Q8NER1 whole entry): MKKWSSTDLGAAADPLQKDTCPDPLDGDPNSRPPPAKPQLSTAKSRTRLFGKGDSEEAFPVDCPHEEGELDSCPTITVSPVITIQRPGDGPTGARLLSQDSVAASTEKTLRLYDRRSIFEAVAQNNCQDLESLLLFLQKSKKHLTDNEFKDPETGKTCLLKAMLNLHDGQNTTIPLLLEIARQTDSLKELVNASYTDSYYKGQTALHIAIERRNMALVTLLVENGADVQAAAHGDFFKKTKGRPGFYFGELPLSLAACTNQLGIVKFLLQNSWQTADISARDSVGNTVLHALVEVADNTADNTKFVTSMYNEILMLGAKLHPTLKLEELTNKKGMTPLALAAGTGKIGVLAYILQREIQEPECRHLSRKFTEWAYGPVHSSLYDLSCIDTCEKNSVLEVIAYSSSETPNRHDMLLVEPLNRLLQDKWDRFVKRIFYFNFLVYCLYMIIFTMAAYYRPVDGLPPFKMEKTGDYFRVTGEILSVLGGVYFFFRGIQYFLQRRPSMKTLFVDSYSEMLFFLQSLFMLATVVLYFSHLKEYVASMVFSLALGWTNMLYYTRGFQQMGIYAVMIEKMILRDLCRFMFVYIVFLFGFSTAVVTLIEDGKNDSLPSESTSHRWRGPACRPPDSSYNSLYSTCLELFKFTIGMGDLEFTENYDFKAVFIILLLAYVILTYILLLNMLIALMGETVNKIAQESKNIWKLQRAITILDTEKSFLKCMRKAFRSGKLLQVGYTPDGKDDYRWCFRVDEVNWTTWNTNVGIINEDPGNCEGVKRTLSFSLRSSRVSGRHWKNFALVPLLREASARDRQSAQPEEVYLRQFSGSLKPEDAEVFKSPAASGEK

inhibition at 1 µM [%]	Structure (SMILES)
29	CC(C)(C)c1cc(CNC(=O)Nc2ccc(CS(C)(=O)=O)nc2)n(-c2cccc(Cl)c2)n1 [Example 159, 1-((3-tert-butyl-1-(3-chlorophenyl)-1H-pyrazol-5-yl)methyl)-3-(6-(methylsulfonylmethyl)pyridin-3-yl)urea]

Same assay, conditions: 5 μM compound; capsaicin (Cap); human being; read-out: inhibition (as a percentage) at the concentration after @, Cap

inhibition at 5 µM [%]	Structure (SMILES)
51	Cc1nc(CO)ccc1NC(=O)NCc1cc(C(F)(F)F)nn1-c1cccc(Cl)c1 [Example 141, 1-((1-(3-chlorophenyl)-3-(trifluoromethyl)-1H-pyrazol-5-yl)methyl)-3-(6-(hydroxymethyl)-2-methylpyridin-3-yl)urea]
47	COc1ncc(NC(=O)NCc2cc(C(F)(F)F)nn2-c2cccc(Cl)c2)cn1 [Example 130, 1-((1-(3-chlorophenyl)-3-(trifluoromethyl)-1H-pyrazol-5-yl)methyl)-3-(2-methoxypyrimidin-5-yl)urea]
77	CC(C(=O)NCc1cc(C(C)(C)C)nn1-c1cccc(Cl)c1)c1ccc(C(N)=O)nc1 (stereo not shown) [Example 56, 5-(1-((3-tert-butyl-1-(3-chlorophenyl)-1H-pyrazol-5-yl)methylamino)-1-oxopropan-2-yl)picolinamide]
29	O=C(NCc1cc(C(F)(F)F)nn1-c1cccc(Cl)c1)Nc1ccccn1 [Example 5, 1-((1-(3-chlorophenyl)-3-(trifluoromethyl)-1H-pyrazol-5-yl)methyl)-3-(pyridin-2-yl)urea]
85	O=C(NCc1cc(C(F)(F)F)nn1-c1cccc(Cl)c1)Nc1ccncc1 [Example 12, 1-((1-(3-chlorophenyl)-3-(trifluoromethyl)-1H-pyrazol-5-yl)methyl)-3-(pyridin-4-yl)urea]
55	COCCN(C)c1ccc(C(C)C(=O)NCc2cc(C(F)(F)F)nn2-c2cccc(Cl)c2)cn1 (stereo not shown) [Example 88, N-((1-(3-chlorophenyl)-3-(trifluoromethyl)-1H-pyrazol-5-yl)methyl)-2-(6-((2-methoxyethyl)(methyl)amino)pyridin-3-yl)propanamide]

Same assay, conditions: capsaicin (Cap) as stimulus; Ki from IC50 by Cheng-Prusoff; read-out: (f) Ki (human being) [nM] Cap

Ki [nM]	Structure (SMILES)
75	CC(C)(C)c1cc(CNC(=O)Nc2ccc(CO)nc2)n(-c2cccc(F)c2)n1 [Example 160, 1-((3-tert-butyl-1-(3-fluorophenyl)-1H-pyrazol-5-yl)methyl)-3-(6-(hydroxymethyl)pyridin-3-yl)urea]
17	O=C(NCc1cc(C2CC2)nn1-c1cccc(Cl)c1)Nc1ccc(NCCO)nc1 [Example 72, 1-((1-(3-chlorophenyl)-3-cyclopropyl-1H-pyrazol-5-yl)methyl)-3-(6-(2-hydroxyethylamino)pyridin-3-yl)urea]
18	CC(C)(C)c1cc(CNC(=O)Nc2ccc(N3CC(O)C3)nc2)n(-c2cccc(Cl)c2)n1 [Example 117, 1-((3-tert-butyl-1-(3-chlorophenyl)-1H-pyrazol-5-yl)methyl)-3-(6-(3-hydroxyazetidin-1-yl)pyridin-3-yl)urea]
4	CC(C(=O)NCc1cc(C(C)(C)C)nn1-c1cccc(Cl)c1)c1ccc(C(=O)Nc2ccc(F)cc2)nc1 (stereo not shown) [Example 60, 5-(1-((3-tert-butyl-1-(3-chlorophenyl)-1H-pyrazol-5-yl)methylamino)-1-oxopropan-2-yl)-N-(4-fluorophenyl)picolinamide]
70	CC(C(=O)NCc1cc(C(C)(C)C)nn1-c1cccc(Cl)c1)c1cnc(C(=O)Nc2ccccc2)nc1 (stereo not shown) [Example 65, 5-(1-((3-tert-butyl-1-(3-chlorophenyl)-1H-pyrazol-5-yl)methylamino)-1-oxopropan-2-yl)-N-phenylpyrimidine-2-carboxamide]
43	CS(=O)(=O)CCc1ccc(NC(=O)NCc2cc(C(F)(F)F)nn2-c2cccc(Cl)c2)cn1 [Example 21, 1-((1-(3-chlorophenyl)-3-(trifluoromethyl)-1H-pyrazol-5-yl)methyl)-3-(6-(2-(methylsulfonyl)ethyl)pyridin-3-yl)urea]
13	CC(C(=O)NCc1cc(C(F)(F)F)nn1-c1cccc(Cl)c1)c1cccnc1 (stereo not shown) [Example 8, N-((1-(3-chlorophenyl)-3-(trifluoromethyl)-1H-pyrazol-5-yl)methyl)-2-(pyridin-3-yl)propanamide]
8	CC(C(=O)NCc1cc(C(C)(C)C)nn1-c1cccc(Cl)c1)c1ccc(NS(C)(=O)=O)nc1 (stereo not shown) [Example 98, N-((3-tert-butyl-1-(3-chlorophenyl)-1H-pyrazol-5-yl)methyl)-2-(6-(methylsulfonamido)pyridin-3-yl)propanamide]
8	CC(C(=O)NCc1cc(C(F)(F)F)nn1-c1cccc(Cl)c1)c1ccc(CCO)nc1 (stereo not shown) [Example 51, N-((1-(3-chlorophenyl)-3-(trifluoromethyl)-1H-pyrazol-5-yl)methyl)-2-(6-(2-hydroxyethyl)pyridin-3-yl)propanamide]
23	CC(C)(C)c1cc(CNC(=O)Nc2ccc(N3CCCC3)nc2)n(-c2cccc(Cl)c2)n1 [Example 120, 1-((3-tert-butyl-1-(3-chlorophenyl)-1H-pyrazol-5-yl)methyl)-3-(6-(pyrrolidin-1-yl)pyridin-3-yl)urea]
5	CN(C)c1ncc(NC(=O)NCc2cc(C(C)(C)C)nn2-c2cccc(Cl)c2)cc1C(F)(F)F [Example 107, 1-((3-tert-butyl-1-(3-chlorophenyl)-1H-pyrazol-5-yl)methyl)-3-(6-(dimethylamino)-5-(trifluoromethyl)pyridin-3-yl)urea]
3	COc1cc(C(C)C(=O)NCc2cc(C(F)(F)F)nn2-c2cccc(Cl)c2)cnc1NS(C)(=O)=O (stereo not shown) [Example 104, N-((1-(3-chlorophenyl)-3-(trifluoromethyl)-1H-pyrazol-5-yl)methyl)-2-(5-methoxy-6-(methylsulfonamido)pyridin-3-yl)propanamide]
43	CC(C)(C)c1cc(CNC(=O)Nc2ccc(N3CCC3)nc2)n(-c2cccc(Cl)c2)n1 [Example 108, 1-(6-(azetidin-1-yl)pyridin-3-yl)-3-((3-tert-butyl-1-(3-chlorophenyl)-1H-pyrazol-5-yl)methyl)urea]
28	CC(C)(C)c1cc(CNC(=O)Nc2cnc(CCS(C)(=O)=O)c(F)c2)n(-c2cccc(Cl)c2)n1 [Example 22, 1-((3-tert-butyl-1-(3-chlorophenyl)-1H-pyrazol-5-yl)methyl)-3-(5-fluoro-6-(2-(methylsulfonyl)ethyl)pyridin-3-yl)urea]
29	Cc1cc(-n2nc(C(F)(F)F)cc2CNC(=O)Nc2ccc(NCCO)nc2)ccc1Cl [Example 156, 1-((1-(4-chloro-3-methylphenyl)-3-(trifluoromethyl)-1H-pyrazol-5-yl)methyl)-3-(6-(2-hydroxyethylamino)pyridin-3-yl)urea]
50	COc1cccc(-n2nc(C(C)(C)C)cc2CNC(=O)Nc2ccc(CCO)nc2)c1 [Example 153, 1-((3-tert-butyl-1-(3-methoxyphenyl)-1H-pyrazol-5-yl)methyl)-3-(6-(2-hydroxyethyl)pyridin-3-yl)urea]
45	CC(C(=O)NCc1cc(C(C)(C)C)nn1-c1cccc(Cl)c1)c1ccc(C(=O)Nc2ccc(C(F)(F)F)cc2)nc1 (stereo not shown) [Example 61, 5-(1-((3-tert-butyl-1-(3-chlorophenyl)-1H-pyrazol-5-yl)methylamino)-1-oxopropan-2-yl)-N-(4-(trifluoromethyl)phenyl)picolinamide]
4	CC(C(=O)NCc1cc(C(F)(F)F)nn1-c1cccc(Cl)c1)c1ccc(NC(=O)c2ccc(F)cc2)nc1 (stereo not shown) [Example 94, N-(5-(1-((1-(3-chlorophenyl)-3-(trifluoromethyl)-1H-pyrazol-5-yl)methylamino)-1-oxopropan-2-yl)pyridin-2-yl)-4-fluorobenzamide]

Same assay, conditions: capsaicin (Cap); human being

mode of action at VR1/TRPV1 (AG, pAG, NE), Cap	Structure (SMILES)
AG	CC(C(=O)NCc1cc(C(C)(C)C)nn1-c1cccc(Cl)c1)c1ccc(C(N)=O)nc1 (stereo not shown) [Example 56, 5-(1-((3-tert-butyl-1-(3-chlorophenyl)-1H-pyrazol-5-yl)methylamino)-1-oxopropan-2-yl)picolinamide]
AG	O=C(NCc1cc(C(F)(F)F)nn1-c1cccc(Cl)c1)Nc1ccncc1 [Example 12, 1-((1-(3-chlorophenyl)-3-(trifluoromethyl)-1H-pyrazol-5-yl)methyl)-3-(pyridin-4-yl)urea]
NE	O=C(NCc1cc(C(F)(F)F)nn1-c1cccc(Cl)c1)Nc1ccc(CNCCO)nc1 [Example 134, 1-((1-(3-chlorophenyl)-3-(trifluoromethyl)-1H-pyrazol-5-yl)methyl)-3-(6-((2-hydroxyethylamino)methyl)pyridin-3-yl)urea]
